Consider 30 compounds from US7612087B2, “Heterocyclic compounds as inhibitors of beta-lactamases” (Novexel, priority 2002, dated 2009).

Structures can show the parent of a compound that is named as a salt.

One experiment addresses T1, β-lactamase TEM1 (Escherichia coli, UniProt P62593).
T1 construct: The β-lactamases are isolated from bacterial strains which are resistant to penicillins and cephalosporins; endogenous in cells; host or cells: E. coli 250HT21 (natural producer; French-press lysate, 100,000 g supernatant)
In words: Inhibition of isolated β-lactamase Tem-1 (Nitrocefin hydrolysis). It counts as biochemical, E.coli 250HT21. As to conditions: 100 μM Nitrocefin, 50 mM sodium phosphate buffer pH7.0, 37° C. How it is done:
(§1) A. Preparation of the β-lactamases Tem-1 and P99
(§2) The β-lactamases are isolated from bacterial strains which are resistant to penicillins and cephalosporins (Tem1 and P99 are produced by E.coli 250HT21 and E.Cloacae 293HT6 respectively).
(§3) The bacteria are cultured at 37° C. in heart-brain culture at 37 g/l (DIFCO). They are harvested at the end of the exponential phase, cooled down and centrifuged. The bacterial pellets are taken up in sodium phosphate buffer 50 mM, pH 7.0 and centrifuged again. The bacteria are taken up in two volumes of the same buffer and lyzed using a French-Press maintained at 4° C. After centrifugation for 1 hour at 100,000 g, at 4° C., the supernatants containing the soluble fraction of the bacterial extracts are recovered and frozen at −80° C.
(§4) The method uses Nitrocefin (OXOID), cephalosporin chromogene as substrate, of which the product hydrolyzed by the B-lactamases is red and absorbs at 485 nm. Beta-lactamase activity is determined kinetically by measurement of the absorbance variation at 485 nm resulting from the hydrolysis of the substrate using a plate spectrophotometer (Spectra Max More Molecular Devices). The experiments are carried out at 37° C. The quantity of enzyme was normalized and the measurements are carried out at initial speed.
(§5) Two measurements were carried out, without preincubation and with preincubation of the enzyme and inhibitor (5 mn), in order to test the irreversibility of the reaction. The products are tested at 6 or 8 concentrations in duplicate. The reaction mixture contains 100 μM of Nitrocefin and 50 mM sodium phosphate buffer pH7.0.
(§6) The hydrolysis speeds are measured with and without inhibitor. The concentration of inhibitor which inhibits by 50% the hydrolysis reaction of Nitrocefin by the enzyme (CI50) is determined. The data is processed using GraFit software (Erathycus Software).

The target in the next experiment is T2, β-lactamase P99 (Enterobacter cloacae, UniProt P05364).
T2 construct: The β-lactamases are isolated from bacterial strains which are resistant to penicillins and cephalosporins; endogenous in cells; host or cells: Enterobacter cloacae 293HT6 (natural producer; French-press lysate, 100,000 g supernatant)
T2 sequence (P05364 21-381): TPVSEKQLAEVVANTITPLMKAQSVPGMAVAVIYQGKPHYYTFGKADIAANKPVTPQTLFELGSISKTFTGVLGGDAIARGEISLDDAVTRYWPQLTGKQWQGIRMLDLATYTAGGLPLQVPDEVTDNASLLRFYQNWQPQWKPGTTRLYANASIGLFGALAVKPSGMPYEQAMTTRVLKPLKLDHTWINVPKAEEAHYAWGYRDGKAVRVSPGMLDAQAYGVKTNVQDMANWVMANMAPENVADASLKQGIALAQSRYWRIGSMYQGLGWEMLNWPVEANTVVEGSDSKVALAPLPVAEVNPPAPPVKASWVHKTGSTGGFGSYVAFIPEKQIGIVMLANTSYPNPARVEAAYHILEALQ
The experiment can be described thus: biochemical. As to conditions: 100 μM Nitrocefin, 50 mM sodium phosphate buffer pH7.0, 37° C.; read-out: IC50 nM/P99. As to the method: as §1, §2, §3, §4, §5, §6

T1 sequence (P62593 24-286 limits assumed): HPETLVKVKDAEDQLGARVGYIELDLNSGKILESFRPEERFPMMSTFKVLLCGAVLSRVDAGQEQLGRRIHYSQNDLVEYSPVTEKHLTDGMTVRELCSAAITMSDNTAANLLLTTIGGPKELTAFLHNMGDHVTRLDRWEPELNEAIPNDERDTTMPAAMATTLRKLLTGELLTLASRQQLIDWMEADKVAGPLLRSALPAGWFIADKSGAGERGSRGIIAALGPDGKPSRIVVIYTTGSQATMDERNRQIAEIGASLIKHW

Consider “6-benzoyl—N—[methyl(phenylmethyl)]-7-oxo-1,6-diazabicyclo[3.2.1]octane-2-carboxamide [Example 29e]”, for which the IC50 stood at 4200 nM against β-lactamase TEM1 and 6300 nM on β-lactamase P99.

`O=C(O)CC[C@@H]1CCN2C[C@H]1OC2=O` (relative stereo) [Example 1a, cis-7-oxo-6-oxa-1-azabicyclo[3.2.1]octane-4-propanoic acid]: the IC50 was 700 nM on β-lactamase TEM1 and above 10000 nM on β-lactamase P99.

`O=C(C[C@@H]1CCN2C[C@@H]1OC2=O)OC(c1ccccc1)c1ccccc1` (relative stereo) [Example 2, Trans diphenylmethyl 7-oxo-6-oxa-1-azabicyclo[3.2.1]octan-4-acetate] gave an IC50 against β-lactamase TEM1 of 462 nM.

On to `O=C(O)C[C@@H]1CCN2C[C@@H]1OC2=O` (relative stereo) [Example 2a, trans-7-oxo-6-oxa-1-azabicyclo[3.2.1]octan-4-acetic acid], for which, on β-lactamase TEM1, the IC50 was found to be 6730 nM.

For the compound `O=C(C[C@@H]1CCN2C[C@H]1OC2=O)OC(c1ccccc1)c1ccccc1` (relative stereo) [Example 3, cis diphenylmethyl 7-oxo-6-oxa-1-azabicyclo[3.2.1]octan-4-acetate], the IC50 turned out to be 590 nM at β-lactamase TEM1 and 9800 nM at β-lactamase P99.

For `O=C(O)C[C@@H]1CCN2C[C@H]1OC2=O` (relative stereo) [Example 3a, cis-7-oxo-6-oxa-1-azabicyclo[3.2.1]octan-4-acetic acid], on β-lactamase TEM1, the IC50 was 4400 nM.

With `COC(=O)C[C@@H]1CCN2C[C@H]1OC2=O` (relative stereo) [Example 3b, cis methyl 7-oxo-6-oxa-1-azabicyclo[3.2.1]octan-4-acetate], the IC50 on β-lactamase TEM1 is 2010 nM.

For `N#CC[C@@H]1CCN2C[C@H]1OC2=O` (relative stereo) [Example 4, cis-7-oxo-6-oxa-1-azabicyclo[3.2.1]octan-4-acetonitrile], the IC50 against β-lactamase TEM1 is 2710 nM.

As to `O=C(OCc1ccccc1)[C@H]1C[C@@H]2CN1C(=O)N2C(=O)c1ccccc1` (relative stereo) [Example 7a, trans phenylmethyl 3-benzoyl-2-oxo-1,3-diazabicyclo[2.2.1]heptane-6-carboxylate], the values for the IC50 on β-lactamase TEM1 and at β-lactamase P99 were 55 nM and 17 nM, respectively.

In the case of `O=C(OCc1ccccc1)[C@H]1C[C@@H]2CN1C(=O)N2S(=O)(=O)c1ccccc1` (relative stereo) [Example 8, trans phenylmethyl 2-oxo-3-(phenylsulphonyl)-1,3-diazabicyclo[2.2.1]heptane-6-carboxylate], the IC50 at β-lactamase TEM1 was 1400 nM; at β-lactamase P99, 62 nM.

`C[C@@]12C[C@H](C(=O)OCc3ccccc3)N(C1)C(=O)N2C(=O)c1ccccc1` (relative stereo) [Example 9, trans phenylmethyl 3-benzoyl-4-methyl-2-oxo-1,3-diazabicyclo[2.2.1]heptane-6-carboxylate]: the IC50 against β-lactamase TEM1 is 8500 nM; at β-lactamase P99, 630 nM.

Take `O=C(OCc1ccccc1)[C@@H]1C[C@@H]2CN1C(=O)N2OS(=O)(=O)O` (relative stereo) [Example 10, 1-propenyltriphenylphosphonium salt of trans phenylmethyl 2-oxo-3-(sulphooxy)-1,3-diazabicyclo[2.2.1]heptane-6-carboxylate]: the IC50 against β-lactamase TEM1 amounted to 0.26 nM; on β-lactamase P99, 1.5 nM.

Regarding `COC(=O)[C@@H]1CC[C@@H]2CN1C(=O)O2` (relative stereo) [Example 26c, trans methyl 7-oxo-6-oxa-1-azabicyclo[3.2.1]octane-2-carboxylate], the figures for the IC50 against β-lactamase TEM1 and at β-lactamase P99 were 1100 nM and 7000 nM, respectively.

Turning to `O=C(NCc1ccccc1)[C@@H]1CC[C@@H]2CN1C(=O)N2C(=O)c1ccccc1` (relative stereo) [Example 29d, trans-6-benzoyl-7-oxo-N-(phenylmethyl)-1,6-diazabicyclo[3.2.1]octane-2-carboxamide], the IC50 is 9500 nM against β-lactamase TEM1 and 2000 nM at β-lactamase P99.

As to `O=C(c1ccccc1)N1C(=O)N2CCC1C2` (centres unmarked) [Example 5, 3-benzoyl-1,3-diazabicyclo[2.2.1]heptan-2-one], the IC50 against β-lactamase TEM1 worked out at 1010 nM.

At β-lactamase TEM1, `O=C(c1ccccc1)N1C(=O)N2CCCC1C2` (centres unmarked) [Example 14, 6-benzoyl-1,6-diazabicyclo[3.2.1]octan-7-one] came in with an IC50 of 6400 nM.

Turning to `Cc1ccc(S(=O)(=O)ON2C(=O)N3CCCC2C3)cc1` (centres unmarked) [Example 19e, 6-[[(4-methylphenyl)sulphonyl]oxy]-1,6-diazabicyclo[3.2.1]octan-7-one], at β-lactamase TEM1, the IC50 amounted to 11 nM.

Regarding `CS(=O)(=O)ON1C(=O)N2CCCC1C2` (centres unmarked) [Example 19f, 6-[(methylsulphonyl)oxy]-1,6-diazabicyclo[3.2.1]octan-7-one], at β-lactamase TEM1, the IC50 was determined as 110 nM.

At β-lactamase TEM1, `O=C1N2CCCC(C2)N1OS(=O)(=O)c1ccc([N+](=O)[O-])cc1` (centres unmarked) [Example 19g] returned an IC50 of 29 nM.

At β-lactamase TEM1, `O=C1OC2C=CCN1C2` (centres unmarked) [Example 22, 6-oxa-1-azabicyclo[3.2.1]oct-3-en-7-one] yielded an IC50 of 5100 nM.

Turning to `O=C(O)C1CCC2CN1C(=O)O2` (stereo not drawn) [Example 26b, trans-7-oxo-6-oxa-1-azabicyclo[3.2.1.]octane-2 carboxylic acid], the IC50 on β-lactamase TEM1 amounted to 4900 nM.

As to `O=C(OCc1ccccc1)C1CCC2CN1C(=O)N2OS(=O)(=O)O` (stereo not drawn) [Example 28b, Sodium salt of trans phenylmethyl 7-oxo-6-(sulphooxy)-1,6-diazabicyclo[3.2.1]octane-2-carboxylate], the IC50 on β-lactamase TEM1 was 9.5 nM; on β-lactamase P99 it was 12 nM.

In the case of `O=C(OCc1ccccc1)C1CCC2CN1C(=O)N2OS(=O)(=O)c1cccs1` (stereo not drawn) [Example 28d, trans pheylmethyl 7-oxo-6-[(2-thienylsulphonyl)oxy]-1,6-diazabicyclo[3.2.1]octane-2-carboxylate], the IC50 on β-lactamase TEM1 was determined as 1.3 nM; at β-lactamase P99, 390 nM.

In the case of `O=C(O)C1CCC2CN1C(=O)N2C(=O)c1ccccc1` (stereo not drawn) [Example 29b, trans-6-benzoyl-7-oxo-1,6-iazabicyclo[3.2.1]octane-2-carboxylic acid], the IC50 against β-lactamase TEM1 came to 460 nM; on β-lactamase P99 it was 4200 nM.

Consider `O=C(c1ccccc1)N1C(=O)N2CC1CCC2CO` (centres unmarked) [Example 29f, 6-benzoyl-2-(hydroxymethyl)-1,6-diazabicyclo[3.2.1]octan-7-one], for which the IC50 on β-lactamase TEM1 was found to be 5200 nM.

For the compound `C=CCOC(=O)N1C(=O)N2CC1CCC2C(=O)OCc1ccc([N+](=O)[O-])cc1` (stereo not drawn) [Example 31, trans (4-nitrophenyl)methyl and 2-propenyl 7-oxo-1,6-diazabicyclo[3.2.1]octane-2,6-dicarboxylate], the IC50 against β-lactamase TEM1 was 5700 nM.

For `COC1=CC2CN(C1)C(=O)N2OS(=O)(=O)O` (centres unmarked) [Example 52, Sodium salt of 3-methoxy-6-(sulphooxy)-1,6-diazabicyclo[3.2.1]oct-3-in-7-one], the IC50 amounted to 11 nM against β-lactamase TEM1 and 4600 nM on β-lactamase P99.

For the compound `O=C1N2CC=CC(C2)N1OS(=O)(=O)O` (centres unmarked) [Example 53, Sodium salt of 6-(sulphooxy)-1,6-diazabicyclo[3.2.1]oct-3-in-7-one], the IC50 against β-lactamase TEM1 turned out to be 15 nM; on β-lactamase P99, 5900 nM.

Take `O=C1N2CCCC(C2)N1OS(=O)(=O)O` (centres unmarked) [Example 54, Sodium salt of 6-(sulphooxy)-1,6-diazabicyclo[3.2.1]octan-7-one]: the IC50 against β-lactamase TEM1 was 3100 nM.

“trans phenylmethyl 6-(2-hydroxy-2-oxoethoxy)-7-oxo-1,6-diazabicyclo[3.2.1]octane-2-carboxylate [Example 28e]” showed an IC50 against β-lactamase TEM1 of 52 nM.
